Several values for one entry are separate records, joined by “and”; a condition that tells them apart may be missing. Identical values can stand only once.
Assays:
[1] = test system: wild-type soybeans (line A3237); experiment: Summary of first two greenhouse experiments, elongation of wild-type soybeans
Protocol: Compounds are first prepared as 25 mg/ml solutions in ethanol as described above, and then diluted into 40 ml of water to prepare the final 0.25 mg/ml treatment solutions. Visual observations on solubilities (milky, clear, etc.) of the treatment solutions are noted. The treatment solutions are divided into two 20 ml portions, each in 50 ml plastic centrifuge tubes. In addition to treating seeds with solutions containing the test compounds, untreated seeds and seeds imbibed in ethanol-water solution (300 μl ethanol in 30 mls of water) are also included in this experiment as controls. In the latter case, 20 seeds are imbibed in 30 mls of solution for six hours.
Two soybean varieties are selected for testing: constitutively GA-deficient transgenic dwarf soybean line 719 (plasmid pMON29801, constitutive FMV promoter/asCPScc; which is a mixture of 719−2 and 719+17), and A3237, the wild-type parent material. […] After imbibition, seeds are removed from the test tubes, placed on wax paper to dry, and planted in bread pans containing farm soil amended with fertilizer at 20 seeds/pan. Seeds are covered with 0.5″ of vermiculite. Pans are transferred to the greenhouse, which had day/night temperatures of 86/68° F. (30/20° C.), and subirrigated. Illumination is at a light intensity of 300-400 μmolm^−2s^−1 photosynthetic photon flux; 16 hours light/8 hours dark. Subsequent waterings are also through sub-irrigation until the test is terminated three weeks later. Observations included the number of dwarf, intermediate, and tall plants; plant height; uniformity of rescue; and any visual effects.
All compounds are tested at final concentrations of 0.25, 0.025, and 0.0025 mg/ml except for GA9, which is tested at 0.125, 0.0125, and 0.00125 mg/ml. (The compounds are tested in Experiment I at only one concentration, i.e., 0.25 mg/ml). Test tubes contained […] of ethanol solution per tube. Final volumes are made up to 30 ml with deionized water. After shaking, the treatment solutions (15 ml each) are transferred to each of two 50 ml test tubes. Treatments 1 to 27 are performed on wild-type line A3237; treatments 28 to 54 are performed on constitutively GA-deficient transgenic dwarf soybean line 719 (a mixture of 719−2 and 719+17). Twenty seeds are used in each treatment. Dry seed, ethanol/water-imbibed seed (1% ethanol in water, v/v), and water-imbibed seeds are included as controls. Seeds are imbibed for 6 hours in the test solutions, then planted in bread pans containing Metromix 350 (The Scotts Company, Marysville, Ohio), and covered with 0.5″ Metro-mix. Covered pans are transferred to the greenhouse and subirrigated. Illumination is at a light intensity of 300-400 μmolm^−2s^−1 photosynthetic photon flux; 16 hours light/8 hours dark. Subsequent waterings are also through sub-irrigation until the test is terminated three weeks later. Observations included the number of dwarf, intermediate, and tall plants; plant height; uniformity of rescue; and any visual effects. Digital photographs are also taken.

[2] = Particulate material present in solutions after mixing; type: physicochemical; conditions: for Particulate material present, 100X Diln w/water: 0.25 mg/ml compound in water; for solubility in water during imbibition: 0.25 mg/ml treatment solutions
Protocol: Each of the compounds noted above is weighed to the nearest 0.1 mg in a pre-tarred 1.5-ml polypropylene vial with a screw-top lid. Absolute ethanol is added to the weighed powder to prepare a 25 mg/ml solution. Solutions are thoroughly mixed using a vortex mixer. A stainless steel spatula is used to crush any particulate material remaining after extensive mixing. Vials are left overnight at room temperature, and then remixed to form the concentrated ethanol stock solutions. The presence of undissolved material is noted throughout this procedure.

[3] = test system: pMON34439 soybean lines 46 and 202; experiment: GA3 soil drench plus foliar spray on AX5/antisense CPScc seedlings; type: in vivo, Glycine max; conditions: 1×10^−6 M GA3 soil drench before planting plus foliar 1×10^−5 M GA3 spray
From the text: Two out of 59 transgenic soybean lines transformed with construct pMON34439 (AX5 promoter/antisense CPScc, FIG. 26), lines 46 and 202, show a reduced stature during early seedling growth and then resume normal vegetative growth. Twenty seeds of each line are sown in Metromix 350 soil in 3″ plastic pots in the greenhouse, approximately 40% of the seedlings are reduced in stature for line 46 and 25, 35% for line 202.

[4] = test system: asCPScc soybean lines 696, 719, 720 and 724; experiment: Seed yield of asCPScc soybean lines treated with GA3; type: in vivo, Glycine max
Protocol: One hundred nine soybean plants from four […] lines (696, 719, 720 and 724) identified with GA-deficient phenotypes are grown to maturity and the seed harvested. Three of the lines (696, 719 and 720) required weekly spraying with GA3 to restore normal vegetative growth. […] Seed yield, seed weight per seed, pod number and seeds/pod data are collected for each plant. Data is collected in three groups for each line: plants that are wild-type; plants that are dwarfs and received no exogenous GA; and plants that are treated with exogenous GA3. […] Line 724 dwarf plants produces equivalent yields to the wild-type plants within this line without any external spraying. […] Line 724 has no reduction in seed weight in dwarfs without supplying exogenous GA.

[5] = test system: ancymidol-treated soybean; experiment: GA3 soil drench restoring seedling height in ancymidol-treated soybean; type: in vivo, Glycine max
From the text: For example, in side-by-side comparisons using soybean, the same dose of GA3 gives substantial differences in hypocotyl elongation depending on the method of application. The relative sensitivity can be: soil drench>hilum treatment>seed imbibition). Also, the dose of GA3, applied as a soil drench, that is needed to fully restore normal seedling height in ancymidol-treated soybean increases with time after planting (10^−7M at 4 DAP; greater than 10^−5 M at 11 DAP).

[6] = test system: wild-type (A3237) soybean; experiment: Hilum treatment with GA15, GA19, GA24, GA44, hypocotyl length, wild-type soybean; conditions: 10 μg/seed, 5 DAP
Protocol: The purpose of this experiment is to evaluate potential gibberellin rescue agents occurring at an intermediate or middle portion of the gibberellin biosynthesis pathway (between GA53/GA12 and GA20/GA9) as seed treatments. These GA compounds are tested using hilum treatment and comparing activity on GA-deficient soybean plants and normal (wild-type) plants.
Wild-type A3237 soybeans are obtained from Asgrow Seed Company. Transgenic seeds are fifth generation (R5) line 719 seeds.
The GA compounds are dissolved in absolute ethanol at a concentration of approximately 10 μg/ml. Compounds are applied to the hilum of dry soybean seed as 1 μl drops. Seeds are sown in 4-inch plastic pots (2 pots per treatment; 5 seeds/pot) containing commercial potting soil (Metromix 200) placed in a greenhouse set for 12 hr light, and day and night temperatures of 85° F. (29° C.) and 75° F. (24° C.), respectively. After all treatments are emerged (5 DAP), hypocotyl length is measured.

[7] = test system: pMON29801 soybean line 719; experiment: Foliar GA3 spray, stature of FMV/asCPScc soybean; type: in vivo, Glycine max
From the text: A foliar spray of GA3 restores normal stature of Line 719 plants. GA3 restores normal vegetative development (Table 6) when sprayed on the foliage of GA-deficient dwarf plants during vegetative development at rates between 10^−4 and 10^−6 M plus a surfactant (Tween 20, 0.05% v/v).

[8] = test system: R1 lines from pMON29220 (P-ICL/canola antisense CPS); experiment: Emergence of R1 canola seed (pMON29220) with exogenous GA3; type: in vivo, Brassica napus; conditions: GA3 10^−5 M to the seed or soil; lines with 2 day delay in emergence
From the text: Seeds are produced from plants transformed with plasmid pMON29220 (P-ICL/canola antisense CPS). These are planted and analyzed for germination phenotype. A 2 day delay in emergence is observed for 58% of the R1 lines tested from pMON29220.

[9] = 0.25 mg/ml solution (ethanol-water)
[10] = 0.0025 mg/ml solution (ethanol-water)
[11] = 0.025 mg/ml solution (ethanol-water)
[12] = 'no GA': single spray treatment at 21 DAP with GA, not further sprayed
[13] = GA sprayed approximately every week starting at 21 DAP

Row | Compound | Elongation of wild-type soybeans [1, 9] | Particulate material present, 100X Diln w/water [2] | solubility in water during imbibition [2] | Elongation of wild-type soybeans [1, 10] | Elongation of wild-type soybeans [1, 11] | also measured
1 | C=C1C[C@]23C[C@H]1CC[C@H]2[C@@]12CCC[C@@](C)(C(=O)O1)[C@H]2[C@@H]3C(=O)O [GA9] | + | YES | less soluble in water during imbibition |  |  | Elongation of wild-type soybeans ([1]; 0.00125 mg/ml solution (ethanol-water)): −; Elongation of wild-type soybeans ([1]; 0.0125 mg/ml solution (ethanol-water)): 0; Elongation of wild-type soybeans ([1]; 0.125 mg/ml solution (ethanol-water)): 0
2 | C=C1C[C@@]23CC[C@H]4[C@@](C)(CCC[C@@]4(C)C(=O)O)[C@@H]2CC[C@@H]1C3 [kaurenoic acid] | − | YES | less soluble in water during imbibition | 0 | 0 | 
3 | C=C1C[C@]23C[C@@]1(O)CC[C@H]2[C@@]12C=C[C@H](O)[C@@](C)(C(=O)O1)[C@H]2[C@@H]3C(=O)O [GA3, gibberellic acid] | + |  |  | + | + | normal growth rate of seedlings [3]: at least partially restored; reduction of seed weight per seed ([4]; dwarf plants, GA treatments): nearly completely rescued; seed yield restored, % of the yield of the wild-types ([4]; dwarfs treated continuously with GA3, lines 696 and 719): 70%; dose of GA3 needed to fully restore normal seedling height ([5]; 4 DAP): 10^−7 M; dose of GA3 needed to fully restore normal seedling height ([5]; 11 DAP): greater than 10^−5 M; hypocotyl elongation of wild-type (A3237) soybean (FIG. 41) [6]: overelongation of A3237 hypocotyls; Plant height (cm), 21 DAP [7, 12]: 2.0 cm and 2.5 cm; Plant height (cm), 50 DAP [7, 12]: 13 cm; Plant height (cm), 21 DAP [7, 13]: 2.5 cm; Plant height (cm), 50 DAP [7, 13]: 61 cm and 56 cm; emergence delay [8]: rescuing the emergence delay
4 | C=C1C[C@]23C[C@H]1CC[C@H]2[C@]1(C)CCC[C@@](C)(C(=O)O)[C@H]1[C@@H]3C(=O)O [GA12] | − |  | less soluble in water during imbibition | 0 | − | Particulate material present, Initial Mixing ([2]; 25 mg/ml in absolute ethanol): YES; Particulate material present, O/N Incubation ([2]; 25 mg/ml in ethanol, overnight at room temperature, remixed): YES
5 | C=C1C[C@]23C[C@@]1(O)CC[C@H]2[C@@]12CC=C[C@@](C)(C(=O)O1)[C@H]2[C@@H]3C(=O)O [GA5] | + |  |  | 0 | 0 | 
